# Data reported in the METLIN SMRT retention time set (Domingo-Almenara et al. 2019).
# Assay: gradient 5% acetonitrile 3 min, to 50% in 2 min, to 85% in 15 min, held 3 min, 100 µL/min
# Conditions: column: Zorbax Extend-C18 2.1 x 50 mm; eluents: water / acetonitrile, 0.1% formic acid
# Summary of the method: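 Retention times come from adduct peaks that were picked computationally and then checked by hand. The standards, pure and pooled in mixtures of ~100 molecules, were run on a Zorbax Extend-C18 column (2.1 × 50 mm, 1.8 μm) at 100 μL/min with water and acetonitrile, each with 0.1% formic acid. Detection was by quadrupole time-of-flight mass spectrometry in positive and negative ionization mode, with a dead volume of 40 μL and a dwell volume of 900 μL.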
row,SMILES,RP-LC retention time [s]
1,Cc1ccccc1C(C(=O)NC1CCCCC1)N(C(=O)Cn1ccnc1C)c1cccc(F)c1 (stereo not given),895
2,CN(C)c1nc2ncn3c(=O)n(CC(=O)Nc4ccc(Cl)cc4F)nc3c2s1,748
3,COCCN1C(=O)c2cc(-c3ccc(OC)c(OC)c3)nn2CC1(C)C(=O)NC1CCCCC1 (stereo not given),824
4,O=c1n(Cc2ccccc2F)nc2ccc(S(=O)(=O)N3CCOCC3)cn12,788
5,COc1cc(=O)c(C(=O)N2CCC(C(N)=O)CC2)nn1-c1ccc(C)cc1,604
6,Cc1nn(S(=O)(=O)N(C)C)c(C)c1Br,881
7,Cc1cccc(NC(=O)Cn2c(N)nc(C)cc2=O)c1,601
8,O=c1c2cc(-c3ccccc3)nn2ccn1Cc1noc(CN2CCCCCCC2)n1,705
9,Cc1scc2nc(C(=O)Nc3cccc(F)c3)nc(N3CCCC3)c12,567
10,C=CCNC(=O)NC1CCN(C2=NS(=O)(=O)C(c3ccccc3)=C2C)CC1,705
11,COCCCNC(=O)C1(C)Cn2nc(-c3ccccc3)cc2C(=O)N1c1ccccc1F (stereo not given),830
12,CCOc1ccc(C(=O)NCc2c(C)noc2C)cc1,733
13,Cc1cc2c(=O)n(CC(=O)Nc3ccc(F)c(F)c3)ccc2s1,826
14,Cc1oc(-c2[nH]ncc2C(=O)N2CCCC2)cc1S(=O)(=O)Nc1ccc(C(C)C)cc1,835
15,CNS(=O)(=O)CCCOc1ccc2c(c1)OCO2,697
16,CCOC(=O)c1ccc(NS(=O)(=O)c2cc3n(c2)CCN(C(C)C)C3=O)cc1,777
17,COc1ccc2c(c1)C1(CCN(C(=O)NC(C)(C)C)C1)C(=O)N2 (stereo not given),695
18,Cc1c(Cl)ccc2c(=O)c3c([nH]c12)CCN(CC(=O)Nc1ccc(Cl)c(F)c1)C3,646
19,C[C@]12CCC3[C@@H](CC[C@@H]4C[C@H](O)CC[C@]34C)[C@@H]1CCC2=O (stereo not given in full),992
20,COCC(=O)Nc1ccc2c(c1)CN(C(=O)c1ccccc1)CC2,658
21,CS(=O)(=O)N1CCC(OC2CCN(C(=O)Nc3ccccc3)CC2)CC1,709
22,Cc1ccc(CNC(=O)c2ccccc2CN2C(=O)C3CCCN3C(=O)c3ccccc32)o1 (stereo not given),741
23,CC(Cc1cccc(C(F)(F)F)c1)NCCCc1ccccc1 (stereo not given),868
24,CCCn1c(=O)sc2cc(S(=O)(=O)N3CCC(C(=O)Nc4ccc(F)cc4)CC3)ccc21,979
25,COc1ccc(NC(=O)N2CCC3(C2)C(=O)N(C)c2ccc(OC)cc23)cc1 (stereo not given),732
26,CCc1nn2c(CNC(=O)c3ccc(OC)cc3)c(-c3ccccc3)nc2s1,881

row,SMILES,RP-LC retention time [s]
1,CCN1C(=O)NC(c2ccc(C)cc2C)C2=C1CN(CCC(=O)N1CCOCC1)C2=O (stereo not given),614
2,COc1cccc(CC(=O)NC(CC(C)C)C(=O)Nc2nc3ccccc3[nH]2)c1 (stereo not given),721
3,COc1cccc(Cn2cc(S(=O)(=O)N3CCCCCC3)ccc2=O)c1,895
4,CCc1ccc2nc(C)cc(C(N)=O)c2c1,561
5,CCN1CCCn2cc(S(=O)(=O)Nc3cc(F)cc(F)c3)cc2C1=O,768
6,Cc1cccc(C2CCCN2C(=O)Cn2cc(Cl)cn2)c1 (stereo not given),866
7,c1cc(-c2nc(-c3ccc(OC4CNC4)cc3)no2)ccn1,604
8,CN1CCN(c2ccc([N+](=O)[O-])c3no[n+]([O-])c23)CC1,631
9,Cc1ccc(CNC(=O)c2cccc(C3CCCN(C(=O)NC(C)C)C3)c2)o1 (stereo not given),833
10,Cc1cccc(NC(=O)Cn2nc(N3CCCC3)c3ccccc3c2=O)c1,960
11,Cc1nc(C(=O)Nc2ccc(F)c(Cl)c2)c(C)o1,958
12,Cc1ccc(NC(=O)N2CCN(c3nc(N)nc4sc(-c5cccnc5)nc34)CC2)cc1,799
13,Cn1cc(C2=CCN(S(=O)(=O)c3cccc(F)c3)CC2)c2cccnc21,969
14,CCOc1ccc(C(=O)NC2(c3nc(CC)no3)CCCCC2)cc1OCC,990
15,COC(=O)c1c(NCCN2CCCc3ccccc32)c2cccc(Cl)c2[nH]c1=O,955
16,COc1ccc(NC(=O)CSc2nc(N3CCCCC3)nc3ccccc23)cc1Cl,756
17,COc1ccc(C(C)NC(=O)c2c(C)sc3ccn(C)c(=O)c23)cc1 (stereo not given),735
18,CC1(C(=O)NCc2ccc(F)cc2)CCCN(C(=O)Nc2cccc(Br)c2)C1 (stereo not given),1030
19,Cn1nc(-c2nnc(-c3ccc(F)cc3)o2)c2c1CCN(S(=O)(=O)c1ccc(F)c(Cl)c1)C2,990
20,O=C(NC1CC1)[C@@H]1C[C@H](Oc2ccccc2)CN1C(=O)CCc1c[nH]c2ccccc12,792
21,CCc1ccc(-c2nc(NC(=O)c3cc(C)on3)sc2C)cc1,1160
22,Cc1cc(C)cc(NC(=O)C(=O)NCC(c2ccc3c(c2)OCO3)N2CCOCC2)c1 (stereo not given),613
23,CCN1CCN(Cc2ccc(C(=O)NCc3cc(F)cc(F)c3)cc2)C(=O)C1=O,682
24,CCN(CC)CCn1c(C)c(C)c2c1ncn1nc(-c3cccnc3)nc21,590
25,CSc1ccc(CNC(=O)c2cc3ccncc3n2C)cc1,637

# Other lines, results leading:
row,RP-LC retention time [s],SMILES
1,984,CCn1cc2c3c(cccc31)CN(C(=O)Nc1ccc(SC)cc1)CC2
2,681,COc1cc(F)ccc1-c1ccnc2ncnn12
3,577,CCN1CCCn2cc(S(=O)(=O)N3CCN(c4ccccn4)CC3)cc2C1=O
4,670,O=C(CN1CCC2(CC1)N=C(c1ccc(Cl)cc1)C(=O)N2)Nc1ccc2c(c1)OCCO2
5,959,Cn1c(=O)oc2cc(-c3noc(-c4ccc(CS(=O)(=O)c5ccccc5)cc4)n3)ccc21
6,617,COCCOC1CCC12CCN(C(=O)c1cn[nH]c1)CC2 (stereo not given)
7,1310,Cc1cc(NC(=O)c2c(O)c3cccnc3n(-c3cccc(F)c3)c2=O)ccc1F
8,1100,COc1ccc(-n2ncc3c(=O)n(Cc4nc(-c5ccc(OC(F)(F)F)cc5)no4)cnc32)cc1
9,1040,CCN1C(=O)COc2ccc(-c3csc(NC(=O)c4ccc(C)cc4)n3)cc21
10,744,Cc1ccccc1Nc1c(-c2cccc(O)c2)nc2cnccn12
11,700,CCN(CC)C(=O)c1ccc(-c2nc3cc(NS(=O)(=O)c4ccc(C)cc4)ccc3n2C)cc1
12,967,CC1(C(=O)NCc2ccc(F)cc2)CCCN(C(=O)Nc2cccc(Cl)c2)C1 (stereo not given)
13,938,O=C(NCC(O)c1ccc(C(F)(F)F)cc1)C(c1ccccc1)c1ccccc1 (stereo not given)
14,961,COc1cc(NC(=O)N2CC(C)Sc3ccccc32)cc(OC)c1OC (stereo not given)
15,975,CCOC(=O)c1c(S(=O)(=O)N2CCC(C(=O)Nc3ccc(C)c(C)c3)CC2)c(C)n(CC)c1C
16,647,O=C(NCC1CCN(c2ncccn2)CC1)c1ccc(Br)o1
17,588,c1ccc(COCC2CCN(Cc3ccccc3)CC2)cc1
18,536,O=C(NCc1cccnc1)C1CCN(c2nnc3ccc(C(F)(F)F)cn23)CC1
19,788,CCn1cnc2ccc(-c3noc(-c4cccc(OC)c4)n3)cc21
20,1050,Cc1nc(-c2cn(C)c3ncccc23)sc1C(=O)Nc1ccc(F)cc1Cl

row,RP-LC retention time [s],SMILES
1,933,COc1cccc(S(=O)(=O)N2CCc3c(c(-c4nnc(-c5ccccc5)o4)nn3C)C2)c1
2,839,CC(C)c1noc(-c2ccc(-n3cnc(C(=O)NCC4CC4)c3)nc2)n1
3,844,Cn1cc(S(=O)(=O)N2CCC(C(=O)NC3CCCCCCC3)CC2)cc1C(=O)N1CCCC1
4,703,COc1ccc(-c2cc3n(n2)CCCN(C(=O)C2CCOC2)C3)cc1 (stereo not given)
5,1210,CCCn1cc(CCNS(=O)(=O)c2ccc(C3CCCCC3)cc2)c2cccnc21
6,951,Cc1cccc(N2C(=O)CN(S(C)(=O)=O)CC2(C)C(=O)NC2CCCCCCC2)c1C (stereo not given)
7,836,COc1ccccc1-n1nnc(C(=O)N2CCc3ccccc32)c1-c1ccccn1
8,681,CCOC(=O)Cc1c(CN2CCN(C)CC2)c2ccccc2n1Cc1ccccc1
9,656,O=C(OCCN1CCN(C2=NS(=O)(=O)c3ccccc32)CC1)c1ccccc1
10,902,COc1ccc(-c2cc3nn(CC(=O)N4CCCC(C)C4)c(=O)n3c(C)n2)cc1 (stereo not given)
11,655,Fc1ccc(-c2ccc(CNCc3ccccn3)o2)cc1
12,881,Cc1cc(NC(=O)c2cccn2-c2cccnc2)ccc1Br
13,641,COCc1cc(=O)n(CC(=O)Nc2ccc(Cl)cc2)c(N)n1
14,686,COc1ccc(Cl)cc1S(=O)(=O)NCC1CCN(C(=O)c2ccccc2F)CC1
15,612,CO[C@H]1C(=O)N(C(C)C)[C@H]1C1CCN(C(=O)c2cnn(C)c2)CC1
16,745,CCCNC(=O)N1CC(Oc2ccc(-c3nc(C)no3)cc2)C1
17,925,Cc1csc(-c2ccc(N3CCN(C(=O)COc4ccc(Cl)cc4)CC3)nc2)n1
18,723,CCc1cc(-c2csc(S(=O)(=O)N3CCN(C4CCCCC4)CC3)c2)on1
19,923,CCS(=O)(=O)Nc1ccc(-c2noc(COc3ccccc3)n2)cc1
